# Several values for one entry are separate records, joined by “and”; a condition that tells them apart may be missing. Equal values may be shown once. Read-outs that look alike come from different tables or passages of the source.
# Legend:
# [1] = plasma clearance and pharmacokinetics after single intravenous dose; type: in vivo, SD rats
# Description: (§1) Lanthanide concentration for both in vivo and in vitro studies were determined by ICP-MS analysis by the method reported previously.[30] In brief, samples were dried (vacuum centrifugation) and dissolved in conc. nitric acid (Optima) and slowly heated to 105 °C over 1 h and maintained at 105 °C for 24 h. Hydrogen peroxide (approximately 2 mL) was added and samples heated at 140 °C for 24 h. Samples were evaporated to dryness at 150 °C before redissolving in 3 mL of 10% nitric acid (with 10 ppm Rh) prior to analysis by ICP-MS.
# (§2) Solutions of La(dpp)3 were prepared in 10% DMSO and the stability of the complex over time (7 days) monitored by spectrophotometric methods. The solution of La(dpp)3 was administered to the animals through cannulae implanted in their jugular veins (n = 6). The animals received a dose of 1 mg kg^–1 at time 0 h and blood samples (0.25 mL were withdrawn at pre-dose, 5, 10, 15, 30 min and 1, 2, 3, 4, 6, 10, 24, 48, 72, 96 and 144 h post-dose). The animals were sacrificed following the last time point and the spleen, liver, kidney, lungs, heart and brain were collected. Lanthanide concentrations were determined by ICP-MS analysis following acid digestion of the samples. The calibration curves were linear in the range of 0.1–100 ng mL^–1 and 1–50 ng mL^–1 in the organs and plasma; respectively. The plasma pharmacokinetic parameters were derived by non-compartmental analysis of plasma concentration-time profiles using Phoenix software (Ver. 1.3).
# [2] = tissue distribution of lanthanum after single intravenous dose (ICP-MS); type: in vivo, SD rats; conditions: single IV dose 1 mg kg^–1, last sampling point 144 h
# Description: as §1, §2
# [3] = tissue and plasma distribution of lanthanum after multiple intravenous doses (ICP-MS); type: in vivo, SD rats; conditions: for plasma levels after 5 days of treatment / La^3+ concentration in brain / La^3+ concentration in heart / La^3+ concentration in kidney / La^3+ concentration in spleen: IV 1 mg kg^–1 per day for 5 days; for plasma levels after 5 days of treatment: mean ± SD; for La^3+ concentration in brain / La^3+ concentration in heart / La^3+ concentration in kidney / La^3+ concentration in spleen: n = 6, mean ± SD; for plasma concentration, t=end, mean / plasma concentration, t=end, single animals: IV 1mg/kg/day, end of trial; for plasma concentration, t=end, mean: n=6, mean; for plasma concentration, t=end, single animals: value of each animal, 1 mg/kg/day
# Description: as §1
# (§3) Solutions of La(dpp)3 and La(XT) (1 mg mL^–1) were prepared in 10% DMSO and stored at 4 °C. Animals were administered with a dose of 1 mg kg^–1 once daily for 5 consecutive days by intravenous injection via jugular vein port. The animals were sacrificed on the day of the 5th dose and the spleen liver, kidney lungs, heart, brain and bones were collected. Blood samples (0.5 mL) were withdrawn at pre-dose and post-dose. The blood was centrifuged for 10 min at […] at room temperature to obtain the plasma. For organ homogenization, 1 g organ was added to 2 mL normal saline. Bones were cleaned manually of all soft flesh and sectioned into knee, middle, and hip parts using a ceramic blade, and lyophilized prior to normal acid digestion.
# [4] = hydroxyapatite binding study (batch, La^3+ depletion in supernatant by ICP-MS); conditions: pH 7.4, 37 °C, excess HAP
# Description: as §1
# All time points were run in triplicate. Samples containing 10 mg of hydroxyapatite (Sigma-Aldrich) were initially incubated and agitated (37 °C, 220 rpm) with 0.9 mL HEPES buffer (100 mM, pH 7.4) in 1.5 mL Eppendorfs for 24 hours. Stock solutions (1.0 mM) of La(dpp)3 and La(XT) were prepared from the premade complexes dissolved in HEPES buffer. At the outset of the experiment, 100 μL of either stock solution was added to a sample and incubated and agitated for a set time. When the time point was reached, the supernatant was carefully removed, taking care not to disturb the residual HAP, and filtered through a 22 micron frit. […] Samples containing La(dpp)3 were also analysed by UV-Vis spectroscopy to determine Hdpp concentration. […]
# [5] = tested on: MG-63 cells; set-up: method as in PMID 17992287, PMID 23299719, PMID 11442371; conditions: earlier work of the authors, read-out: EC50 (cellular toxicity); cited from earlier work
# [6] = set-up: method as in PMID 23299719, PMID 11442371; conditions: cited from earlier work; for pM (= –log[La^3+]): calculated at pH 7.4, 100 μM ligand, 10 μM metal
# [7] = isothermal titration calorimetry, binding to hydroxyapatite; conditions: ITC
# Description: ITC experiments in the presence of ligand (Hdpp or XT) were carried out in either piperazine (100 mM) pH 5 or HEPES (100 mM) pH 7.4. Titrations were performed by injecting consecutive 10 μL aliquots of ligand (2.5–80 mM) or metal ion/ligand solution (2.5/10 mM for Hdpp and 81/90 mM for XT) into the ITC cell (volume = 1.4 mL) containing hydroxyapatite (0.1–1.5 mM) suspension. Hydroxylapatite suspensions were prepared by adding the required amount of hydroxyapatite to the appropriately buffered solution followed by sonication for 5 minutes. The ITC cell was stirred continuously during the titration. Control experiments (heats of dilution) were performed by titration of ligand or metal ion/ligand solution into buffer containing no hydroxyapatite. Each ITC experiment was performed in triplicate (at least). The error associated with diffusion from the syringe during baseline equilibration, the first injection was only 5 μL, and the associated small heat was not included in the data analysis.
# [8] = set-up: method as in Cawthray et al. 37; conditions: ITC, 37 °C, ref Cawthray et al. 37; cited from earlier work
# [9] = bone (femur) distribution of lanthanum after multiple doses; type: in vivo, SD rats; conditions: 1 mg kg^–1 per day for 5 days, ANOVA p 0.006, 0.017, 0.004 (hip, mid, knee)
# Description: as §1, §3
# [10] = La^3+ in plasma, La(dpp)3 1 mg kg^–1 IV, SD rats, non-compartmental, n = 6, mean
# [11] = thermodynamic stability of the complex
smiles,measurement,setting,value
Cc1c([O-])c(=O)ccn1C.Cc1c([O-])c(=O)ccn1C.Cc1c([O-])c(=O)ccn1C.[La+3] [La(dpp)3],lanthanum in plasma beyond 10 h,"[1]; 1 mg kg^–1 IV, beyond 10 h",not detected
same,time until plasma lanthanum is back to pre-dose concentrations,"[1]; 1 mg kg^–1 IV, pre-dose ∼15 ng mL^–1",≤ 24 h
same,C 0,[1]; [10],4973 ± 557 ng mL^–1 and 4973.09 ng mL^–1
same,Cl,[1]; [10],77 mL h^–1 kg^–1 and 77.24 mL h^–1 kg^–1
same,K el,[1]; [10],0.20 h^–1
same,MRT,[1]; [10],3.46 h
same,T 1/2,[1]; [10],3.61 h
same,V ss,[1]; [10],265 mL kg^–1 and 265.41 mL kg^–1
same,plasma lanthanum level as % of C0,[1]; within 6 hours after 1 mg kg^–1 IV,approximately 10%
same,La^3+ concentration in brain,[2],15 ± 12 ng g^–1
same,La^3+ concentration in heart,[2],20 ± 7 ng g^–1
same,La^3+ concentration in kidney,[2],108 ± 95 ng g^–1
same,La^3+ concentration in liver,[2],741 ± 109 ng g^–1
same,La^3+ concentration in spleen,[2],1164 ± 350 ng g^–1
same,plasma levels after 5 days of treatment,[3],5517 ± 1188 ng g^–1
same,La^3+ concentration in brain,[3],101 ± 60 ng g^–1
same,La^3+ concentration in heart,[3],635 ± 178 ng g^–1
same,La^3+ concentration in kidney,[3],992 ± 321 ng g^–1
same,La^3+ concentration in spleen,[3],7817 ± 3211 ng g^–1
same,"plasma concentration, t=end, mean",[3],5517.0 ng/g weight
same,"plasma concentration, t=end, single animals",[3],4971.8 ng/g weight and 4668.4 ng/g weight and 4232.8 ng/g weight and 7201.5 ng/g weight and 6740.2 ng/g weight and 5287.1 ng/g weight
same,La^3+ bound to HAP,[4]; first 15 minutes,greater than 80%
same,EC50,[5],> 100 µM
same,pM (= –log[La^3+]),[6],5.8
same,log βML3,[6]; [11],17.44
"Cc1c(O)c(=O)ccn1C [Hdpp, 3-hydroxy-1,2-dimethylpyridin-4(1H)-one]",interaction of ligand alone with HAP,"[7]; pH 5, absence of La^3+",do not see any evidence of interaction
same,binding of ligand alone to HAP,"[7]; pH 7.4, absence of La^3+",no binding is observed
"O=C(O)CN(CC(=O)O)CP(=O)(O)CN(CC(=O)O)CC(=O)O [H5XT, bis[[bis(carboxymethyl)amino]-methyl]phosphinate]",apparent K a (pH 5),"[7]; 37 °C, pH 5 (100 mM piperazine), one-site bimolecular–bimolecular model",1.9 (±0.4) × 10^2 M^–1
same,K (one-site fit),"[7]; 37 °C, pH 7.4 (100mM HEPES), 30.4mM H5XT into 1.1 mM HAP, Fig. S2",6.61E3±1.33E3
[La+3] [Free La^3+],apparent K a (pH 5),[8],2.4 (±0.2) × 10^6 M^–1
O=C([O-])CN(CC(=O)[O-])CP(=O)(O)CN(CC(=O)[O-])CC(=O)[O-].[La+3] [La(XT)],plasma levels after 5 days of treatment,[3],5999 ± 302 ng g^–1
same,La^3+ concentration in brain,[3],112 ± 84 ng g^–1
same,La^3+ concentration in heart,[3],768 ± 115 ng g^–1
same,La^3+ concentration in kidney,[3],1320 ± 157 ng g^–1
same,La^3+ concentration in spleen,[3],3854 ± 827 ng g^–1
same,"plasma concentration, t=end, mean",[3],5998.7 ng/g weight
same,"plasma concentration, t=end, single animals",[3],5843.4 ng/g weight and 6432.4 ng/g weight and 5776.8 ng/g weight and 6337.3 ng/g weight and 5782.3 ng/g weight and 5819.9 ng/g weight
same,bone distribution of lanthanum compared to La(dpp)3,[9],slightly greater
same,La^3+ bound to HAP,[4]; after 4 h,less than 20%
same,pM (= –log[La^3+]),[6],12.0
same,log βML,[6]; [11],13.0(3)

# From PMC6054118, “In vivo study and thermodynamic investigation of two lanthanum complexes, La(dpp)3 and La(XT), for the treatment of bone resorption disorders” (Chemical Science, 2015)
